Structures are written as SMILES.

For this experiment, the target named is T1, human TREK-1 receptor (Homo sapiens, UniProt O95069).
T1 construct: expressed in transfected cells
T1 sequence (O95069 1-426): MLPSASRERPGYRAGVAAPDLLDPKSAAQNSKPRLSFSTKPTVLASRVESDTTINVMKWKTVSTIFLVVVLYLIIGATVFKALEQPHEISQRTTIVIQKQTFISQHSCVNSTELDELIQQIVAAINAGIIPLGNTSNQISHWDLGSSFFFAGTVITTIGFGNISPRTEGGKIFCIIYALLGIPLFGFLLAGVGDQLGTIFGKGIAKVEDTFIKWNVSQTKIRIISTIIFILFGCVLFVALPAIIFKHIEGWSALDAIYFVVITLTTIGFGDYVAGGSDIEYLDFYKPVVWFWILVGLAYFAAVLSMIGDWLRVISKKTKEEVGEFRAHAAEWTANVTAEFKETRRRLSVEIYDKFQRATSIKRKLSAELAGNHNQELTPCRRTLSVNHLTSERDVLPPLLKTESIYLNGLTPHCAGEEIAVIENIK
Description: TREK receptor screening: TREK-1 mediated currents by manual patch clamp in transfected frog oocytes. Type of experiment: cell-based. The settings on record: at 1 mMol; None = 1.000. An excerpt:
The human TREK-1 receptor is a temperature sensitive, mechano-gated potassium channels, present in human skin and neuronal cells. It is known to be involved in the signaling of temperature sensation. Here it cooperates with other ion channels in the relevant cell types.
To screen for TREK-1 receptor channel blockers, frog oocyte were transfected to transiently overexpress the human TREK-1 receptor. A substance database was screened on the cells. Read out was TREK-1medited currents, detected by manual patch clamp.
For `CCCCCCCCCCC(O)CO` (centres unmarked) [1,2-Dodecandiol], the “Blockade of TREK-1 receptor, F.I.” value worked out at 0.733.

Take `CCCCCCCCC(O)CO` (centres unmarked) [1,2-Decandiol]: the “Blockade of TREK-1 receptor, F.I.” value is listed as 0.773.

With `CCCCC(O)CO` (centres unmarked) [1,2-Hexandiol], the “Blockade of TREK-1 receptor, F.I.” value was found to be 0.942.

Regarding `CNCCC(Oc1ccc(C(F)(F)F)cc1)c1ccccc1` (centres unmarked) [Fluoxetine, reference compound], the “Blockade of TREK-1 receptor, F.I.” value is listed as 0.679.

As to `CCCCCCC(O)CO` (centres unmarked) [1,2-Octandiol], the “Blockade of TREK-1 receptor, F.I.” value came out at 0.855.

The record behind these values is US11123272B2, “Cosmetic blends” (Symrise AG, priority 2016, dated 2021).
